Measured values from paper PMC8951750, “In Vitro Anticancer and Cancer-Preventive Activity of New Triterpene Glycosides from the Far Eastern Starfish Solaster pacificus” (Marine Drugs, 2022).
Where “and” joins values, the source holds several entries; their conditions need not be identical. Equal entries are not always repeated. Where two headings read alike, the source gives them in different places.

Columns and labels:
JB6 Cl41 cells [1] = assay: Soft agar assay, UVB-induced neoplastic cell transformation; format: cell-based, mouse; details: compound 0.1 µM, UVB 0.3 J/cm^2 three times a week for 3 weeks, soft agar; for inhibition at 0.1 µM: Mus musculus, JB6 Cl41, light or radiation study, 504 h, read-out: inhibition of UVB-induced neoplastic cell transformation (decrease of colonies number)
Experimental: (§1) JB6 Cl41 cells (2.4 × 10^4) were exposed to epidermal growth factor (EGF) (1 ng/mL) or phorbol 12-myristate 13-acetate (TPA) (10 ng/mL) and treated either with DMSO (control) or the triterpene glycosides 1–9 from S. pacificus (0.1, 0.5, and 1 µM) in 1 mL of 0.3% basal medium Eagle (BME) agar containing 10% FBS, 2 mM L-glutamine, and 25 µg/mL gentamicin (agar mix). The cultures were maintained in a humidified atmosphere with 5% CO2 at 37 °C for 14 days, and the cell’s colonies were scored using a microscope, Motic AE 20 (XiangAn, Xiamen, China), and the ImageJ software bundled with 64-bit Java 1.8.0_112 (NIH, Bethesda, MD, USA). To determine the effect of investigated compounds on neoplastic cell transformation induced by ionizing radiation (X-ray or UVB), JB6 Cl41 cells (3 × 10^5/dish) were seeded in 60 mm dishes and cultured for 24 h at 37 °C in 5% CO2 incubator. Then, the cells were exposed to X-rays (X-ray system XPERT 80 (KUB Technologies, Inc, Milford, CT, USA)) at dose of 0.5 Gy or UVB (wavelengths below 312 nm) (Bio-Link UV irradiation system, Vilber, France) at dose of 0.3 J/cm^2 three times a week for 3 weeks. Irradiated JB6 Cl41 cells (2.4 × 10^4) were treated either with DMSO (control) or the triterpene glycosides 1–9 from S. pacificus (0.1, 0.5, and 1 µM) in 1 mL of agar mix. The cultures were maintained in a humidified atmosphere with 5% CO2 at 37 °C for 14 days, and the cell’s colonies were scored using a microscope, Motic AE 20 (XiangAn, Xiamen 361101, China), and the ImageJ software bundled with 64-bit Java 1.8.0_112 (NIH, Bethesda, MD, USA).

JB6 Cl41 cells [2] = assay: Soft agar assay, X-ray-induced neoplastic cell transformation; format: cell-based, mouse; details: Mus musculus, JB6 Cl41, 504 h
Experimental: as §1

JB6 Cl41 cells [3] = assay: Soft agar assay, EGF-induced neoplastic cell transformation; format: cell-based, mouse; details: Mus musculus, JB6 Cl41, 336 h
Experimental: as §1

[4] = tested on: non-cancerous mouse epidermal cells JB6 Cl41; assay: Cell viability, MTS assay, JB6 Cl41; format: cell-based; details: Mus musculus, JB6 Cl41, 24 h
Experimental: (§2) MTS assay was used to measure the cell viability of tested normal and cancer cells. Cells were seeded into 96-well plates (“Jet Biofil”, Guangzhou, China) at density of 1.0 × 10^4/200 µL for 24 h at 37 °C in a 5% CO2 incubator. Then, cell monolayer was treated either with DMSO (control) or various concentrations of the triterpene glycosides 1–9 from S. pacificus (0.1, 0.5, 2.5, 12.5, 62.5 µM) in fresh appropriate culture medium for 24 h. Subsequently, the cells were incubated with 15 µL of 3-(4,5-dimethylthiazol-2-yl)-5-(3-carboxymethoxyphenyl)-2-(4-sulfophenyl)-2H-tetrazolium (MTS reagent) (“Promega”, Madison, WI, USA) for 3 h, and the absorbance of each well was measured at 490/630 nm using Power Wave XS microplate reader (“BioTek”, Wynusky, VT, USA). The concentration at which the compounds exert half of their maximal inhibitory effect on cell viability (IC50) was calculated by the AAT-Bioquest® online calculator [39]. The selectivity index (SI) was calculated as described previously using the following formula SI = IC50 of the compounds in normal cell (JB6 Cl41)/IC50 of the same compounds in human melanoma cell lines (SK-MEL-2, SK-MEL-28, or RPMI-7951).

[5] = tested on: human melanoma cells SK-MEL-2; assay: Cell viability, MTS assay, SK-MEL-2; format: cell-based; details: for SI (selectivity index) SK-MEL-2: IC50 JB6 Cl41 / IC50 SK-MEL-2
Experimental: as §2

[6] = tested on: human melanoma cells RPMI-7951; assay: Cell viability, MTS assay, RPMI-7951; format: cell-based; details: for IC50: Homo sapiens, RPMI-7951, 24 h; for SI (selectivity index) RPMI-7951: IC50 JB6 Cl41 / IC50 RPMI-7951
Experimental: as §2

[7] = tested on: human melanoma cells SK-MEL-28; assay: Cell viability, MTS assay, SK-MEL-28; format: cell-based; details: for IC50: Homo sapiens, SK-MEL-28, 24 h; for SI (selectivity index) SK-MEL-28: IC50 JB6 Cl41 / IC50 SK-MEL-28
Experimental: as §2

SK-MEL-2 cells = assay: Soft agar assay, colony formation of cancer cells; format: cell-based, human; details: compound 0.1 µM, 14 days
Experimental: SK-MEL-2 cells (2.4 × 10^4) were treated either with DMSO (control) or the triterpene glycosides 1–9 from S. pacificus (0.1 µM) in 1 mL of agar mix. After 14 days, colonies of cancer cells were scored as described above.

JB6 Cl41 cells [8] = assay: Soft agar assay, TPA-induced neoplastic cell transformation; format: cell-based, mouse; details: Mus musculus, JB6 Cl41, 336 h
Experimental: as §1

[9] = tested on: Human erythrocytes (O(I)+); assay: Hemolysis assay; format: cell-based; details: 1 h, 37 °C, PBS pH 7.4
Experimental: Human erythrocytes (O(I)+) were obtained from Vladivostok blood transfusion station. Erythrocytes were centrifuged with PBS (pH 7.4) for 5 min at 4 °C by 450× g on a LABOFUGE 400R (Heraeus, Hanau, Germany) centrifuge three times. Then, the residue of erythrocytes was resuspended in ice-cold PBS (pH 7.4) to a final optical density of 2.0 at 700 nm and kept on ice. For the hemolytic assay, 180 µL of erythrocyte suspension was mixed with 20 µL of Cucumarioside A2-2 (positive control) and investigated compounds at concentrations range of 0.1, 0.5, 1, 5, 10 µM in V-bottom 96-well plates. After 1 h of incubation at 37 °C, plates were centrifuged at 900× g for 10 min on an LMC-3000 (Biosan, Riga, Latvia) laboratory centrifuge. Then, we carefully selected 100 µL of supernatant and transferred it to new flat plates, respectively. Lysis of erythrocytes was determined by measuring the concentration of hemoglobin in the supernatant with a microplate photometer Multiskan FC (Thermo Fisher Scientific, Waltham, MA, USA) at 570 nm. The effective dose causing 50% of erythrocytes hemolysis (ED50) was calculated using the computer program SigmaPlot 10.0. All experiments were made in triplicate, p < 0.01.

[10] = compound 0.1 µM, X-rays 0.5 Gy three times a week for 3 weeks, soft agar, read-out: inhibition of X-ray-induced cell transformation (JB6 Cl41 colonies formation)
[11] = compound 0.1 µM, EGF 1 ng/mL, soft agar, 2 weeks, vs positive control, read-out: inhibition of EGF-induced neoplastic transformation of JB6 Cl41 cells
[12] = MTS assay, 24 h, normal cells, read-out: IC50, cell viability JB6 Cl41
[13] = Homo sapiens, SK-MEL-2, 24 h, MTS assay, 24 h, read-out: IC50, cell viability SK-MEL-2
[14] = MTS assay, 24 h, read-out: IC50, cell viability SK-MEL-2
[15] = MTS assay, 24 h, read-out: IC50, cell viability RPMI-7951
[16] = MTS assay, 24 h, read-out: IC50, cell viability SK-MEL-28
[17] = compound 0.1 µM, TPA 10 ng/mL, soft agar, 2 weeks, vs positive control, read-out: inhibition of TPA-induced neoplastic transformation of JB6 Cl41 cells

Compound | inhibition at 0.1 µM (JB6 Cl41 cells [1]) | inhibition at 0.1 µM (JB6 Cl41 cells [2]; [10]) | inhibition at 0.1 µM (JB6 Cl41 cells [3]; [11]) | IC50 [4, 12] | IC50 [5, 13] | SI (selectivity index) SK-MEL-2 [5] | IC50 [5, 14] | IC50 [6, 15] | SI (selectivity index) RPMI-7951 [6] | IC50 [7, 16] | SI (selectivity index) SK-MEL-28 [7] | decrease of colonies number of SK-MEL-2 cells (colony formation) (SK-MEL-2 cells) | inhibition at 0.1 µM (JB6 Cl41 cells [8]; [17]) | ED50, effective dose causing 50% of erythrocytes hemolysis [9] | inhibition of UVB-induced neoplastic cell transformation (decrease of colonies number) (JB6 Cl41 cells [1]) | further results
COC1C(O)C(CO)OC(OC2C(O)C(CO)OC(OC3C(C)OC(OC4C(OC5CCC6(C)C7CCC89C(=O)OC(C)(C=CC=C(C)C)C8C(OC(C)=O)CC9(C)C7=CCC6C5(C)C)OCC(O)C4O)C(OC4OCC(O)C(O)C4O)C3O)C2O)C1O [Compound 1, 3β-O-{3-O-methyl-β-D-glucopyranosyl-(1→3)-β-D-glucopyranosyl-(1→4)-[β-D-xylopyranosyl-(1→2)]-β-D-quinovopyranosyl-(1→2)-β-D-xylopyranosyl}-16β-acetoxyholosta-7,22E,24-triene] | 96% | 94% | 94% | 6.4 ± 0.05 µM | < 1 µM | 9.1 | 0.7 ± 0.07 µM | 26.7 ± 0.1 µM | 0.24 | 8.4 ± 0.07 µM | 0.8 | 64% | 98% | 2.03 µM and 2.03 ± 0.19 µM | – | –
C=C(C)C1C2CC3(C)C4=CCC5C(C)(C)C(OC6OCC(O)C(O)C6OC6OC(C)C(OC7OC(CO)C(O)C(O)C7O)C(O)C6OC6OCC(O)C(O)C6O)CCC5(C)C4CCC13C(=O)O2 [Compound 8, 3β-O-{β-D-glucopyranosyl-(1→4)-[β-D-xylopyranosyl-(1→2)]-β-D-quinovopyranosyl-(1→2)-β-D-xylopyranosyl}-23,24,25,26,27-pentanor-5α-lanosta-7,20(22)-diene-18(16)-lactone] | – | < 15% | 10% | 32.8 ± 2.8 µM | > 50 µM | – | – | > 50 µM | – | 42 ± 0.4 µM | 0.8 | 3% | 20% | 6.16 ± 0.05 µM | not effective | –
C=C(C)C1C2CC3(C)C4=CCC5C(C)(C)C(OC6OCC(O)C(O)C6OC6OC(C)C(OC7OC(CO)C(O)C(OC8OC(CO)C(O)C(OC)C8O)C7O)C(O)C6OC6OCC(O)C(O)C6O)CCC5(C)C4CCC13C(=O)O2 [Compound 7, 3β-O-{3-O-methyl-β-D-glucopyranosyl-(1→3)-β-D-glucopyranosyl-(1→4)-[β-D-xylopyranosyl-(1→2)]-β-D-quinovopyranosyl-(1→2)-β-D-xylopyranosyl}-23,24,25,26,27-pentanor-5α-lanosta-7,20(22)-diene-18(16)-lactone] | – | – | – | – | – | – | – | – | 0.25 | – | 0.3 | 15% | – | 4.07 ± 0.10 µM | not effective | inhibition at 0.1 µM (JB6 Cl41 cells [2]; read-out: inhibition of X-ray-induced cell transformation (JB6 Cl41 colonies formation), compound 0.1 µM, X-rays 0.5 Gy three times a week for 3 weeks, soft agar): < 15%; inhibition at 0.1 µM (JB6 Cl41 cells [3]; read-out: inhibition of EGF-induced neoplastic transformation of JB6 Cl41 cells, compound 0.1 µM, EGF 1 ng/mL, soft agar, 2 weeks, vs positive control): 20%; IC50 ([4]; read-out: IC50, cell viability JB6 Cl41, MTS assay, 24 h, normal cells): 8.7 ± 0.07 µM; IC50 ([5]; Homo sapiens, SK-MEL-2, 24 h, read-out: IC50, cell viability SK-MEL-2, MTS assay, 24 h): 5.6 ± 0.1 µM; IC50 ([6]; read-out: IC50, cell viability RPMI-7951, MTS assay, 24 h): 31.4 ± 0.1 µM; IC50 ([7]; read-out: IC50, cell viability SK-MEL-28, MTS assay, 24 h): 23 ± 0.07 µM; inhibition at 0.1 µM (JB6 Cl41 cells [8]; read-out: inhibition of TPA-induced neoplastic transformation of JB6 Cl41 cells, compound 0.1 µM, TPA 10 ng/mL, soft agar, 2 weeks, vs positive control): 33%
C=C(C)C1C2CC3(C)C4=CCC5C(C)(C)C(OC6OCC(O)C(O)C6OC6OC(C)C(OC7OC(COS(=O)(=O)O)C(O)C(OC8OCC(O)C(OC)C8O)C7O)C(O)C6O)CCC5(C)C4CCC13C(=O)O2 [Compound 9, 3β-O-{3-O-methyl-β-D-xylopyranosyl-(1→3)-6-O-6-sulfoxy-β-D-glucopyranosyl-(1→4)-β-D-quinovopyranosyl-(1→2)-β-D-xylopyranosyl}-23,24,25,26,27-pentanor-5α-lanosta-7,20(22)-diene-18(16)-lactone] | 11% | 28% | 34% | 7.4 ± 0.8 µM | < 1 µM | 9.9 | 0.75 ± 0.03 µM | 32.4 ± 0.08 µM | 0.23 | 23.3 ± 0.6 µM | 0.32 | – | 42% | 2.85 ± 0.14 µM | – | –
